Data: ChEMBL document CHEMBL4834468, “Enantioselective Synthesis and Profiling of Potent, Nonlinear Analogues of Antimalarial Tetraoxanes E209 and N205” (ACS Med Chem Lett, 2021)
In brackets after ≈: the same amount, converted by molar mass.

Key:
[1] = tested on: Plasmodium falciparum; assay: microbe, parasite or virus in culture; settings: D10, 72 h
Description: Antiplasmodial activity against chloroquine-sensitive Plasmodium falciparum D10 incubated for 72 hrs by spectrophotometry based parasite lactate dehydrogenase assay

[2] = Solubility of the compound in FaSSIF; format: physicochemical
[3] = Solubility of the compound in FaSSIF assessed as equilibrium pH; format: physicochemical; settings: simulated gi fluid
[4] = Solubility of compound in 0.1 M HCl; format: physicochemical
[5] = Solubility of compound in 0.1 M HCl assessed as equilibrium pH; format: physicochemical; settings: buffer
[6] = tested on: Plasmodium falciparum; assay: microbe, parasite or virus in culture; settings: W2, 72 h
Description: Antiplasmodial activity against chloroquine-resistant Plasmodium falciparum W2 incubated for 72 hrs by spectrophotometry based parasite lactate dehydrogenase assay

[7] = Tmax in Sprague-Dawley rat at 10 mg/kg, po administered as single dose; format: ADME, organism-based; settings: in vivo
[8] = Oral bioavailability in Sprague-Dawley rat at 10 mg/kg administered as single dose; format: ADME, organism-based; settings: in vivo
[9] = AUC (infinity) in Sprague-Dawley rat at 10 mg/kg, po administered as single dose; format: ADME, organism-based; set-up: time infinity, route oral, dose 10 mg/kg; settings: in vivo
[10] = Aqueous solubility of compound in PBS at pH 7.4; format: physicochemical
[11] = Cmax in Sprague-Dawley rat at 10 mg/kg, po administered as single dose; format: ADME, organism-based; set-up: route oral, dose 10 mg/kg; settings: in vivo
[12] = Intrinsic clearance in rat hepatocytes measured per 10^6 cells up to 120 mins by LC-MS analysis; format: ADME, cell-based, Hepatocyte; settings: read-out: CLH
[13] = Intrinsic clearance in human liver microsome up to 30 mins by LC-MS analysis; format: ADME; settings: liver microsomes, read-out: CLH
[14] = Intrinsic clearance in mouse liver microsome by LC-MS/MS analysis; format: ADME, microsomes
[15] = tested on: Plasmodium falciparum; assay: Antiplasmodial activity against chloroquine-sensitive Plasmodium falciparum 3D7; format: functional, organism-based
[16] = Intrinsic clearance in mouse liver microsome assessed as half life by LC-MS/MS analysis; format: ADME; settings: microsomes

For `FC1CCN(Cc2ccc(C3CCC4(CC3)OOC3(OO4)C4CC5CC(C4)CC3C5)cc2)CC1` (centres undefined), the IC50 [1] was 0.0161 µM, the solubility at 1 h [2] was 14.8 µg/mL (≈ 31.4 µM) and the pH [3] was 6.1. The solubility [4] was 101 µg/mL (≈ 214 µM), the pH [5] was 1 and the IC50 [6] was 0.0117 µM.

`c1cc(C2CCC3(CC2)OOC2(OO3)C3CC4CC(C3)CC2C4)ccc1CN1CCOCC1` (centres undefined) showed an IC50 [1] of 0.00938 µM, a solubility at 1 h [2] of 24 µg/mL (≈ 52.7 µM) and a Tmax [7] of 4.33 h. It also gave a pH [3] of 6.1, a bioavailability [8] of 41.3% and a solubility [4] of 21.2 µg/mL (≈ 46.5 µM). For the same compound, the pH [5] was 1, the AUC(0-inf) [9] was 608 ng·h/mL and the solubility [10] was 0.106 µM (≈ 0.0483 µg/mL). It also gave an IC50 [6] of 0.00865 µM and a Cmax [11] of 136 ng/mL.

In the case of `FC1CCN(CCOc2ccc(C3CCC4(CC3)OOC3(OO4)C4CC5CC(C4)CC3C5)cc2)CC1` (centres undefined), the IC50 [1] is reported as 0.00896 µM, the solubility at 1 h [2] is reported as 215 µg/mL (≈ 429 µM) and the pH [3] is reported as 6.42. For the same compound, the solubility [4] was 1790 µg/mL (≈ 3570 µM), the hepatocyte CLint [12] was 12 µL/min/1e6 cells and the pH [5] was 1.13. The solubility [10] was 0.1 µM (≈ 0.0502 µg/mL), the IC50 [6] was 0.00849 µM and the microsomal CLint [13] was 23 µL/min/mg.

With `c1cc(C2CCC3(CC2)OOC2(OO3)C3CC4CC(C3)CC2C4)ccc1OCCN1CCOCC1` (centres undefined) the IC50 [1] was 0.0124 µM and the IC50 [6] was 0.0101 µM.

`c1cc([C@@H]2CCCC3(C2)OOC2(OO3)C3CC4CC(C3)CC2C4)ccc1CN1CCOCC1` (some centres undefined) gave an IC50 [1] of 0.0125 µM, a solubility at 1 h [2] of 324 µg/mL (≈ 711 µM) and a Tmax [7] of 2 h. For the same compound, the pH [3] was 6.43, the bioavailability [8] was 76.4% and the solubility [4] was 188 µg/mL (≈ 413 µM). For the same compound, the hepatocyte CLint [12] was 26.2 µL/min/1e6 cells, the pH [5] was 1.12 and the AUC(0-inf) [9] was 1440 ng·h/mL. It also gave a solubility [10] of 0.1 µM (≈ 0.0456 µg/mL), an IC50 [6] of 0.0112 µM and a microsomal CLint [13] of 27.1 µL/min/mg. For the same compound, the Cmax [11] was 410 ng/mL.

In the case of `FC1CCN(CCOc2ccc([C@H]3CCCC4(C3)OOC3(OO4)C4CC5CC(C4)CC3C5)cc2)CC1` (some centres undefined), the IC50 [1] is reported as 0.0208 µM, the solubility at 1 h [2] is reported as 413 µg/mL (≈ 823 µM) and the pH [3] is reported as 6.43. For the same compound, the solubility [4] was 1270 µg/mL (≈ 2530 µM), the hepatocyte CLint [12] was 16.7 µL/min/1e6 cells and the pH [5] was 1.14. It also gave a solubility [10] of 0.1 µM (≈ 0.0502 µg/mL), an IC50 [6] of 0.0225 µM and a microsomal CLint [13] of 26.3 µL/min/mg.

`c1cc(C2CCCC3(C2)OOC2(OO3)C3CC4CC(C3)CC2C4)ccc1OCCN1CCOCC1` (centres undefined) gave an IC50 [1] of 0.0164 µM and an IC50 [6] of 0.0177 µM.

Compound `c1cc([C@H]2CCCC3(C2)OOC2(OO3)C3CC4CC(C3)CC2C4)ccc1OCCN1CCOCC1` (some centres undefined) has an IC50 [1] of 0.016 µM, a solubility at 1 h [2] of 69 µg/mL (≈ 142 µM) and a pH [3] of 6.42. The solubility [4] was 284 µg/mL (≈ 585 µM), the hepatocyte CLint [12] was 49.2 µL/min/1e6 cells and the pH [5] was 1.11. The solubility [10] was 0.1 µM (≈ 0.0486 µg/mL), the IC50 [6] was 0.0158 µM and the microsomal CLint [13] was 22.1 µL/min/mg.

`NC1CCN(C(=O)O[C@@H]2CCC[C@]3(C2)OOC2(O3)C3CC4CC(C3)CC2C4)CC1` (some centres undefined) showed a microsomal CLint ([14]; liver microsomes, read-out: CLH) of 155 µL/min/mg and an EC50 [6] of 0.0018 µM.

`FC1CCN(CCOc2ccc([C@@H]3CCCC4(C3)OOC3(OO4)C4CC5CC(C4)CC3C5)cc2)CC1` (some centres undefined) showed an IC50 [1] of 0.0175 µM, a hepatocyte CLint [12] of 13.5 µL/min/1e6 cells and a solubility [10] of 0.1 µM (≈ 0.0502 µg/mL). The IC50 [6] was 0.0192 µM and the microsomal CLint [13] was 19.8 µL/min/mg.

Compound `FC1CCN(Cc2ccc([C@@H]3CCCC4(C3)OOC3(OO4)C4CC5CC(C4)CC3C5)cc2)CC1` (some centres undefined) has an IC50 [1] of 0.0106 µM, a solubility at 1 h [2] of 195 µg/mL (≈ 413 µM) and a pH [3] of 6.43. The solubility [4] was 95 µg/mL (≈ 201 µM), the hepatocyte CLint [12] was 19.2 µL/min/1e6 cells and the pH [5] was 1.12. For the same compound, the solubility [10] was 0.1 µM (≈ 0.0472 µg/mL), the IC50 [6] was 0.0103 µM and the microsomal CLint [13] was 35.9 µL/min/mg.

`c1cc([C@@H]2CCCC3(C2)OOC2(OO3)C3CC4CC(C3)CC2C4)ccc1OCCN1CCOCC1` (some centres undefined) showed an IC50 [1] of 0.0174 µM, a hepatocyte CLint [12] of 21.6 µL/min/1e6 cells and a solubility [10] of 0.1 µM (≈ 0.0486 µg/mL). For the same compound, the IC50 [6] was 0.016 µM and the microsomal CLint [13] was 22.2 µL/min/mg.

For `FC1CCN(Cc2ccc([C@H]3CCCC4(C3)OOC3(OO4)C4CC5CC(C4)CC3C5)cc2)CC1` (some centres undefined), the IC50 [1] was 0.0165 µM, the solubility at 1 h [2] was 189 µg/mL (≈ 401 µM) and the pH [3] was 6.44. For the same compound, the solubility [4] was 60 µg/mL (≈ 127 µM), the hepatocyte CLint [12] was 30.7 µL/min/1e6 cells and the pH [5] was 1.14. For the same compound, the solubility [10] was < 0.1 µM, the IC50 [6] was 0.0149 µM and the microsomal CLint [13] was 26.7 µL/min/mg.

`c1cc([C@H]2CCCC3(C2)OOC2(OO3)C3CC4CC(C3)CC2C4)ccc1CN1CCOCC1` (some centres undefined) gave an IC50 [1] of 0.0152 µM, a solubility at 1 h [2] of 248 µg/mL (≈ 544 µM) and a pH [3] of 6.42. It also gave a solubility [4] of 165 µg/mL (≈ 362 µM), a hepatocyte CLint [12] of 50.2 µL/min/1e6 cells and a pH [5] of 1.13. For the same compound, the solubility [10] was 0.1 µM (≈ 0.0456 µg/mL), the IC50 [6] was 0.0152 µM and the microsomal CLint [13] was 19.7 µL/min/mg.

For `c1cc(C2CCCC3(C2)OOC2(OO3)C3CC4CC(C3)CC2C4)ccc1CN1CCOCC1` (racemic), the IC50 [1] was 0.0154 µM and the IC50 [6] was 0.0112 µM.

Work on `FC1CCN(Cc2ccc(C3CCCC4(C3)OOC3(OO4)C4CC5CC(C4)CC3C5)cc2)CC1` (racemic) yielded an IC50 [1] of 0.0157 µM and an IC50 [6] of 0.0144 µM.

Work on `FC1CCN(CCOc2ccc(C3CCCC4(C3)OOC3(OO4)C4CC5CC(C4)CC3C5)cc2)CC1` (racemic) yielded an IC50 [1] of 0.0129 µM and an IC50 [6] of 0.0128 µM.

`c1cc([C@H]2CC[C@]3(CC2)OO[C@]2(O3)C3CC4CC(C3)CC2C4)ccc1OCCN1CCOCC1` [ARTEFENOMEL] showed a solubility at 1 h [2] of 120 µg/mL (≈ 256 µM), a pH [3] of 6.6 and an IC50 [15] of 0.0051 µM. For the same compound, the solubility [10] was 0.85 µM (≈ 0.399 µg/mL).

`C[C@H]1[C@@H](O)O[C@@H]2O[C@@]3(C)CC[C@H]4[C@H](C)CC[C@@H]1[C@@]24OO3` [ARTENIMOL] gave an IC50 [1] of 0.00259 µM and an IC50 [6] of 0.00102 µM.

For `CC(C)(N)CNC(=O)C[C@H]1CC[C@]2(CC1)OO[C@]1(O2)C2CC3CC(C2)CC1C3` [OZ277], the t1/2 [16] was 2.13 h and the CLH ([14]; microsomes) was 5.4 µL/min/mg.
